According to patent publication US20210395262A1, “INHIBITORS OF HUMAN IMMUNODEFICIENCY VIRUS REPLICATION” (ViiV HEALTHCARE UK (NO.5) LIMITED, priority 2018, published 2021):
Like-named read-outs stand apart in the source and are kept apart here.

Assays:
[1] = Compound cytotoxicity, XTT-based colorimetric assay; type: cell-based; settings: human
Procedure: Compound cytotoxicity and the corresponding CC50 values were determined using the same protocol as described in the antiviral assay except that uninfected cells were used. Cytotoxicity was assessed on day 4 in uninfected MT2 cells by using a XTT (2,3-bis[2-Methoxy-4-nitro-5-sulfophenyl]-2H-tetrazolium-5-carboxyanilide inner salt)-based colorimetric assay (Sigma-Aldrich, St Louis, Mo.).

recombinant NL4-3 virus = assay: HIV cell culture assay (antiviral activity, luciferase readout in MT-2 cells); type: cell-based; settings: Human immunodeficiency virus 1, NL43, MT2
Procedure: HIV cell culture assay—MT-2 cells, 293T cells and the proviral DNA clone of NL4-3 virus were obtained from the […] AIDS Research and Reference Reagent Program. MT-2 cells were propagated in RPMI 1640 media supplemented with 10% heat inactivated fetal bovine serum (FBS), […] penicillin G and up to 100 units/mL streptomycin. The 293T cells were propagated in DMEM media supplemented with 10% heat inactivated FBS, […] penicillin G and […] streptomycin. A recombinant NL4-3 proviral clone, in which a section of the nef gene was replaced with the Renilla luciferase gene, was used to make the reference virus used in these studies. The recombinant virus was prepared through transfection of the recombinant NL4-3 proviral clone into 293T cells using Transit-293 Transfection Reagent from Mirus Bio LLC (Madison, Wis.). Supernatent was harvested after 2-3 days and the amount of virus present was titered in MT-2 cells using luciferase enzyme activity as a marker by measuring luciferase enzyme activity. Luciferase was quantitated using the EnduRen Live Cell Substrate from Promega (Madison, Wis.). Antiviral activities of compounds toward the recombinant virus were quantified by measuring luciferase activity in MT-2 cells infected for 4-5 days with the recombinant virus in the presence of serial dilutions of the compound.
The 50% effective concentration (EC50) was calculated by using the exponential form of the median effect equation where (Fa)=1/[1+(ED50/drug conc.)m] (Johnson V A, Byington R T. Infectivity Assay. In Techniques in HIV Research. ed. Aldovini A, Walker B D. 71-76. New York: Stockton Press. 1990). The 50% inhibitory concentration (EC50) was calculated by using the exponential form of the median effect equation where percent inhibition=1/[1+(EC50/drug concentration)m], where m is a parameter that reflects the slope of the concentration-response curve.

[2] = uninfected MT2 cells, day 4, XTT, read-out: CC50

Compound | CC50 at 4 days [1, 2] | EC50 (recombinant NL4-3 virus) | CC50 at 4 days [1]
Cn1nc(NS(C)(=O)=O)c2c(Cl)ccc(-n3c([C@H](Cc4cc(F)cc(F)c4)NC(=O)Cn4nc(C(F)F)c5c4C(F)(F)[C@@H]4C[C@H]54)nc4cc(N5CCCCC5)ccc4c3=O)c21 (atropisomer, axis not shown; (P)) [Example 14, N—((S)-1-((3P)-3-(4-chloro-1-methyl-3-(methylsulfonamido)-1H-indazol-7-yl)-4-oxo-7-(piperidin-1-yl)-3,4-dihydroquinazolin-2-yl)-2-(3,5-difluorophenyl)ethyl)-2-((3bS,4aR)-3-(difluoromethyl)-5,5-difluoro-3b,4,4a,5-tetrahydro-1H-cyclopropa[3,4]cyclopenta[1,2-c]pyrazol-1-yl)acetamide] | > 1000 nM | 0.242 nM | –
Cn1nc(NS(C)(=O)=O)c2c(Cl)ccc(-n3c([C@H](Cc4cc(F)cc(F)c4)NC(=O)Cn4nc(C(F)F)c5c4C(F)(F)[C@@H]4C[C@H]54)nc4cc(N5C6CCC5COC6)ccc4c3=O)c21 [Example 64, N—((S)-1-(7-((1R,5S)-3-oxa-8-azabicyclo[3.2.1]octan-8-yl)-(3P)-3-(4-chloro-1-methyl-3-(methylsulfonamido)-1H-indazol-7-yl)-4-oxo-3,4-dihydroquinazolin-2-yl)-2-(3,5-difluorophenyl)ethyl)-2-((3bS,4aR)-3-(difluoromethyl)-5,5-difluoro-3b,4,4a,5-tetrahydro-1H-cyclopropa[3,4]cyclopenta[1,2-c]pyrazol-1-yl)acetamide] | – | 0.037 nM | > 500 nM
O=C(Cn1nc(C(F)F)cc1C(F)F)N[C@@H](Cc1cc(F)cc(F)c1)c1nc2cc(N3CCOCC3)ccc2c(=O)n1-c1ccc(Cl)c2c(NS(=O)(=O)C3CC3)nn(CC(F)F)c12 (atropisomer, axis not shown; (P)) [Example 36, (S)-2-(3,5-bis(difluoromethyl)-1H-pyrazol-1-yl)-N-(1-((3P)-3-(4-chloro-3-(cyclopropanesulfonamido)-1-(2,2-difluoroethyl)-1H-indazol-7-yl)-7-morpholino-4-oxo-3,4-dihydroquinazolin-2-yl)-2-(3,5-difluorophenyl)ethyl)acetamide] | > 1000 nM | 2.31 nM | –
O=C(Cn1nc(C(F)F)cc1C(F)F)N[C@@H](Cc1cc(F)cc(F)c1)c1nc2cc(N3CCCCC3)ccc2c(=O)n1-c1ccc(Cl)c2c(NS(=O)(=O)C3CC3)nn(CC(F)F)c12 (atropisomer, axis not shown; (P)) [Example 37, (S)-2-(3,5-bis(difluoromethyl)-1H-pyrazol-1-yl)-N-(1-((3P)-3-(4-chloro-3-(cyclopropanesulfonamido)-1-(2,2-difluoroethyl)-1H-indazol-7-yl)-4-oxo-7-(piperidin-1-yl)-3,4-dihydroquinazolin-2-yl)-2-(3,5-difluorophenyl)ethyl)acetamide] | > 1000 nM | 2.34 nM | –
Cn1nc(NS(C)(=O)=O)c2c(Cl)ccc(-n3c([C@H](Cc4cc(F)cc(F)c4)NC(=O)Cn4nc(C(F)F)c5c4C(F)(F)[C@@H]4C[C@H]54)nc4cc(NCC(F)(F)F)ccc4c3=O)c21 (atropisomer, axis not shown; (P)) [Example 42, N—((S)-1-((3P)-3-(4-chloro-1-methyl-3-(methylsulfonamido)-1H-indazol-7-yl)-4-oxo-7-((2,2,2-trifluoroethyl)amino)-3,4-dihydroquinazolin-2-yl)-2-(3,5-difluorophenyl)ethyl)-2-((3bS,4aR)-3-(difluoromethyl)-5,5-difluoro-3b,4,4a,5-tetrahydro-1H-cyclopropa[3,4]cyclopenta[1,2-c]pyrazol-1-yl)acetamide] | > 1000 nM | 0.11 nM | –
